Assay results published in patent publication US12043600B2, “Microbiocidal compounds” (SYNGENTA CROP PROTECTION AG, priority 2018, dated 2024).

Assays:
[1] = system: Glomerella lagenarium (Colletotrichum lagenarium); assay: Glomerella lagenarium (Colletotrichum lagenarium)/Liquid Culture (Anthracnose); assay type: cell-based; settings: Colletotrichum orbiculare, liquid culture, compared to untreated control
[2] = system: Mycosphaerella arachidis (Cercospora arachidicola); assay: Mycosphaerella arachidis (Cercospora arachidicola)/Liquid Culture (Early Leaf Spot); assay type: cell-based; settings: liquid culture, compared to untreated control
Method in brief: (§1)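 Growth inhibition read in liquid culture: spores from frozen stocks, suspended in potato dextrose broth, meet DMSO-dissolved compound placed beforehand in the plate.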

[3] = system: Puccinia recondita f. sp. tritici; assay: Puccinia recondita f. sp. tritici/Wheat/Leaf Disc Preventative (Brown Rust); assay type: in vivo; settings: foliar, 200 ppm, wheat leaf disc preventative, compared to untreated control, read-out: control of Puccinia recondita f. sp. tritici
[4] = system: Pythium ultimum; assay: Pythium ultimum/Liquid Culture (Seedling Damping Off); assay type: cell-based; settings: Globisporangium ultimum, liquid culture, compared to untreated control
Experimental: Mycelia fragments and oospores of a newly grown liquid culture of the fungus are directly mixed into nutrient broth (PDB potato dextrose broth). After placing a (DMSO) solution of test compound into a microtiter plate (96-well format), the nutrient broth containing the fungal mycelia/spore mixture is added.

[5] = system: Monographella nivalis (Microdochium nivale); assay: Monographella nivalis (Microdochium nivale)/Liquid Culture (Foot Rot Cereals); assay type: cell-based; settings: liquid culture, compared to untreated control
Method in brief: as §1

[6] = system: Puccinia recondita f. sp. tritici; assay: Puccinia recondita f. sp. tritici/Wheat/Leaf Disc Curative (Brown Rust); assay type: in vivo; settings: foliar, wheat leaf disc curative, compared to untreated control
Method in brief: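 Formulated compound, diluted in water, is applied to inoculated wheat cv. Kanzler leaf segments on agar one day post-inoculation (pre-incubation dark, 19° C, 75% rh). After 6-8 days at 19° C, 75% rh and 12 h/12 h light, activity is rated as percent disease control relative to untreated segments.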

[7] = system: Mycosphaerella graminicola (Septoria tritici); assay: Mycosphaerella graminicola (Septoria tritici)/Liquid Culture (Septoria Blotch); assay type: cell-based; settings: Zymoseptoria tritici; 20 ppm; liquid culture; compared to untreated control
Method in brief: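 Results given as % disease control: test compound in DMSO was placed in wells first, then potato dextrose broth carrying cryostored fungal conidia was added.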

[8] = system: Phytophthora infestans; assay: whole plant or invertebrate; assay type: in vivo; settings: in Solanum lycopersicum, foliar, read-out: control of Phytophthora infestans
[9] = system: Plasmopara viticola; assay: whole plant or invertebrate; assay type: in vivo; settings: foliar, read-out: control of Plasmopara viticola
[10] = system: Botryotinia fuckeliana (Botrytis cinerea); assay: Botryotinia fuckeliana (Botrytis cinerea)/Liquid Culture (Gray Mould); assay type: cell-based; settings: liquid culture, compared to untreated control
Experimental: Conidia of the fungus from cryogenic storage are directly mixed into nutrient broth (Vogels broth). After placing a (DMSO) solution of test compound into a microtiter plate (96-well format), the nutrient broth containing the fungal spores is added.

[11] = system: Magnaporthe grisea (Pyricularia oryzae); assay: whole plant or invertebrate; assay type: in vivo; settings: foliar, read-out: control of Magnaporthe grisea
[12] = system: Phakopsora pachyrhizi; assay: Phakopsora pachyrhizi/Soybean/Preventative (Soybean Rust); assay type: in vivo; settings: foliar, 288 h, 200 ppm, soybean leaf disc preventative, compared to untreated control, read-out: control of Phakopsora pachyrhizi
[13] = system: Phaeosphaeria nodorum (Septoria nodorum); assay: Phaeosphaeria nodorum (Septoria nodorum)/Wheat/Leaf Disc Preventative (Glume Blotch); assay type: in vivo; settings: Parastagonospora nodorum, foliar, wheat leaf disc preventative, compared to untreated control
Method in brief: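 Preventative test: compound spray first, then spore inoculation after 2 days on cv. Kanzler wheat leaf segments. Incubation in a climate cabinet at 20 °C and 75% rh under a 12 h light/12 h dark cycle. Activity rated as % control relative to untreated discs at 5–7 days post-application.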

[14] = system: Blumeria graminis f. sp. tritici (Erysiphe graminis f. sp. tritici); assay: Blumeria graminis f. sp. tritici/Wheat/Leaf Disc Preventative (Powdery Mildew on Wheat); assay type: in vivo; settings: foliar, wheat leaf disc preventative, compared to untreated control
Method in brief: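 Preventative leaf-disc test: percent disease control versus untreated leaf segments read 6-8 days post-application. Compound spray applied to wheat cv. Kanzler segments on agar one day before shaking infected plants over them; incubation at 20° C and 60% rh, 24 h darkness then 12 h light/12 h dark cycles.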

[15] = system: Alternaria solani; assay: Alternaria solani/Tomato/Leaf Disc (Early Blight); assay type: in vivo; settings: foliar, tomato leaf disc, compared to untreated control
Method in brief: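 Protective leaf-disc test: compound sprayed onto tomato cv. Baby disks, spore inoculation following after 2 days. Disks kept at 80% rh, 12/12 h light/dark, 23° C. day and 21° C. night; activity read as percent disease control relative to untreated checks 5-7 days post-application.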

[16] = system: Sclerotinia sclerotiorum; assay: Sclerotinia sclerotiorum/Liquid Culture (Cottony Rot); assay type: cell-based; settings: liquid culture, compared to untreated control
Experimental: Mycelia fragments of a newly grown liquid culture of the fungus are directly mixed into nutrient broth (PDB potato dextrose broth). After placing a (DMSO) solution of test compound into a microtiter plate (96-well format) the nutrient broth containing the fungal material is added.

[17] = system: Thanatephorus cucumeris (Rhizoctonia solani); assay: Thanatephorus cucumeris (Rhizoctonia solani)/Liquid Culture (Foot Rot, Damping-Off); assay type: cell-based; settings: liquid culture, compared to untreated control
Experimental: Mycelia fragments of a newly grown liquid culture of the fungus are directly mixed into nutrient broth (PDB potato dextrose broth). After placing a (DMSO) solution of the test compounds into a microtiter plate (96-well format), the nutrient broth containing the fungal material is added.

[18] = system: Pyrenophora teres; assay: Pyrenophora teres/Barley/Leaf Disc Preventative (Net Blotch); assay type: in vivo; settings: foliar, 200 ppm, barley leaf disc preventative, compared to untreated control, read-out: control of Pyrenophora teres
Method in brief: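 Preventative leaf-disc test: inoculation with fungal spores took place 2 days after spraying segments of barley cv. Hasso, placed on agar, with water-diluted formulated compound. Read-out is % disease control per compound.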

[19] = Photostability assay (Atlas Suntest); assay type: physicochemical; settings: Suntest 750 W/m^2, spotted on microscope slides
Experimental: The testing method to measure the photostability data of each compound in table is D1 is as specifically described below. The objective of the photostability assay was to determine the stability of the individual test compounds in a strictly controlled and reproducible environment allowing a comparison of their photostability.
Method: Compounds were dissolved in methanol (HPLC grade) to give 1 g/L stock solutions. Compound stock solution (2 μl) was spotted onto microscope slides in a 3D printed holder and put into the Atlas Suntest. The spectral output power of the Suntest was set to 750 W/m^2, which is considered typical of the daily maximum (noon) irradiance level on a very bright British Summer day. At specific time points slides were removed from the Suntest and placed in 4D vials. Wash solvent made up of 50:40:10 H2O:MeCN:THF (1 mL) is then added to the vials and whirlimixed. The resulting solution is then subsampled to an HPLC vial to be analysed. A Waters UPLC system with Photodiode Array was used with a Waters reverse phase column (BEH C18, 100×2.1 mm×1.7 μm) and acetonitrile (HPLC grade) acidified water (0.2% formic acid) mobile phase at a flow rate of 0.6 mL/min. Peak detection was at the optimum wavelength and peak areas were used for quantification
Initial and subsequent measurements of peak area attributable to the test compound were used to provide a % parent remaining at 3 hours.

| Compound | inhibition of growth at 20 ppm [1] [%] | inhibition of growth at 20 ppm [2] [%] | pest or weed control at 200 ppm [3] [%] | inhibition of growth at 20 ppm [4] [%] | inhibition of growth at 20 ppm [5] [%] | pest or weed control at 200 ppm [6] [%] | inhibition of growth at 20 ppm [7] [%] | pest or weed control at 200 ppm [8] [%] | pest or weed control at 200 ppm [9] [%] | inhibition of growth at 20 ppm [10] [%] | pest or weed control at 200 ppm [11] [%] | pest or weed control at 200 ppm [12] [%] | pest or weed control at 200 ppm [13] [%] | melting point [°C] | pest or weed control at 200 ppm [14] [%] | pest or weed control at 200 ppm [15] [%] | inhibition of growth at 20 ppm [16] [%] | inhibition of growth at 20 ppm [17] [%] | pest or weed control at 200 ppm [18] [%] | % Parent Remaining @ 3 hrs [19] [%] |
| --- | --- | --- | --- | --- | --- | --- | --- | --- | --- | --- | --- | --- | --- | --- | --- | --- | --- | --- | --- | --- |
| CO/C=C(\Oc1cc(-n2ccc(C3CCCC3)n2)ccc1C)C(=O)OC [Compound E-5, methyl (Z)-2-[5-(3-cyclopentylpyrazol-1-yl)-2-methyl-phenoxy]-3-methoxy-prop-2-enoate] | ≥ 80 | ≥ 80 | ≥ 80 | ≥ 80 | ≥ 80 | ≥ 80 | ≥ 80 | ≥ 80 | ≥ 80 | ≥ 80 | ≥ 80 | – | – | – | – | – | – | – | – | – |
| CO/C=C(\Oc1cc(-n2ccc(C(C)C)n2)cc(F)c1C)C(=O)OC [Compound E-7, methyl (Z)-2-[3-fluoro-5-(3-isopropylpyrazol-1-yl)-2-methyl-phenoxy]-3-methoxy-prop-2-enoate] | ≥ 80 | ≥ 80 | ≥ 80 | ≥ 80 | ≥ 80 | ≥ 80 | ≥ 80 | ≥ 80 | ≥ 80 | – | ≥ 80 | ≥ 50 | ≥ 80 | 114 to 116 | ≥ 80 | – | – | – | – | – |
| CO/C=C(\Oc1cc(-n2ccc(C(C)C)n2)cc(OC)c1C)C(=O)OC [Compound E-21, methyl (Z)-2-[5-(3-isopropylpyrazol-1-yl)-3-methoxy-2-methyl-phenoxy]-3-methoxy-prop-2-enoate] | ≥ 80 | ≥ 80 | ≥ 80 | ≥ 80 | ≥ 80 | ≥ 80 | ≥ 80 | ≥ 80 | ≥ 80 | – | – | – | – | 90 to 92 | – | ≥ 80 | – | – | – | – |
| CO/C=C(\Oc1cc(-n2ccc(C(C)C(F)(F)F)n2)ccc1C)C(=O)OC (centres unmarked) [Compound E-23, methyl (Z)-3-methoxy-2-[2-methyl-5-[3-(2,2,2-trifluoro-1-methyl-ethyl)pyrazol-1-yl]phenoxy]prop-2-enoate] | ≥ 80 | ≥ 80 | ≥ 80 | – | ≥ 80 | ≥ 80 | ≥ 80 | ≥ 80 | ≥ 80 | ≥ 80 | – | – | – | 119 to 122 | – | – | ≥ 80 | ≥ 80 | – | – |
| CO/C=C(\Oc1cc(-n2ccc(C3CCCCC3)n2)ccc1C)C(=O)OC [Compound E-36, methyl (Z)-2-[5-(3-cyclohexylpyrazol-1-yl)-2-methyl-phenoxy]-3-methoxy-prop-2-enoate] | ≥ 80 | ≥ 80 | ≥ 80 | – | ≥ 80 | ≥ 80 | ≥ 80 | ≥ 80 | ≥ 80 | ≥ 80 | ≥ 80 | – | ≥ 80 | 85 to 89 | – | ≥ 80 | ≥ 80 | ≥ 80 | ≥ 80 | – |
| CO/C=C(\Oc1cc(-n2ccc(C3(F)CC3)n2)ccc1C)C(=O)OC [Compound E-67, methyl (Z)-2-[5-[3-(1-fluorocyclopropyl)pyrazol-1-yl]-2-methyl-phenoxy]-3-methoxy-prop-2-enoate] | ≥ 80 | ≥ 80 | ≥ 80 | – | ≥ 80 | ≥ 80 | ≥ 80 | ≥ 80 | ≥ 80 | – | – | – | ≥ 80 | 128 to 131 | ≥ 80 | ≥ 80 | ≥ 80 | ≥ 80 | ≥ 80 | 37 |
| CO/C=C(\Oc1cc(-n2ccc(C(C)(C)C)n2)ccc1C)C(=O)OC [Compound E-103, methyl (Z)-2-[5-(3-tert-butylpyrazol-1-yl)-2-methyl-phenoxy]-3-methoxy-prop-2-enoate] | ≥ 80 | ≥ 80 | ≥ 80 | ≥ 80 | ≥ 80 | ≥ 80 | ≥ 80 | ≥ 80 | ≥ 80 | ≥ 80 | ≥ 80 | ≥ 50 | ≥ 80 | – | ≥ 80 | – | – | – | – | – |
| CO/C=C(\Oc1cccc(-n2ncc(C3CC3)n2)c1)C(=O)OC [Compound F-9, methyl (Z)-2-[3-(4-cyclopropyltriazol-2-yl)phenoxy]-3-methoxy-prop-2-enoate] | ≥ 80 | ≥ 80 | ≥ 80 | ≥ 80 | ≥ 80 | ≥ 80 | ≥ 80 | ≥ 80 | ≥ 80 | – | – | – | – | – | ≥ 80 | – | – | – | – | – |
